We go through 19 compounds from patent US11866430B2, “Naphthyridinone compounds useful as T cell activators” (priority 2018, dated 2024).

As a reminder, the IC50 is the concentration needed to halve the response being measured.

Experiment [1] concerns OT-1 antigen-specific CD8+ T cells with MC38 tumor cells. Put plainly: Murine Cytotoxic T Lymphocyte Assay (IFN-γ). The class given is cell-based, mouse. The text has this:
An antigen-specific cytolytic T-cell (CTL) assay was developed to evaluate functionally the ability of DGKα and DGKζ inhibitors to enhance effector T cell mediated tumor cell killing activity. CD8+ T-cells isolated from the OT-1 transgenic mouse recognize antigen presenting cells, MC38, that present the ovalbumin derived peptide […]. Recognition of the cognate antigen initiates the cytolytic activity of the OT-1 antigen-specific CD8+ T cells.
Functional CTL cells were generated as follows: OT-1 splenocytes from 8-12 week old mice were isolated and expanded in the presence of the […] peptide at 1 μg/mL and mIL2 at 10 U/mL. After three days, fresh media with mIL2 U/mL was added. On day 5 of the expansion, the CD8+ T cells were isolated and ready for use. Activated CTL cells may be stored frozen for 6 months. […] The cells were washed (3×) with fresh media to remove excess peptide. Finally, CTL cells that were pretreated with DGK inhibitors for 1 hour in a 96-well U bottom plate were combined with the antigen loaded MC38 tumor cells at a 1:10 ratio. The cells were then spun at 700 rpm for 5 min and placed in an incubator overnight at 37° C. After 24 hours, the supernatant was collected for analysis of IFN-γ cytokine levels by AlphaLisa purchased from Perkin Elmer.

Experiment [2] has as its target human DGKα (Homo sapiens (Human), UniProt P23743). Put plainly: DGKα LIPGLO assay (extruded liposome substrate). It is filed as biochemical. An outline of the steps: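 Human full-length DGKα, His-tagged and produced in Sf9 cells, assayed at 20 nM (4× stock) on extruded liposomes of PS, 0.25 mM DAG and 2.75 mM PC, preincubated 10 min. Reaction started with 300 μM ATP (stock) and ran 1 h in MOPS pH 7.5/MgCl2/CaCl2/DTT buffer.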

For experiment [3], the system named is Jurkat AP1-luciferase Reporter. Put plainly: DGK AP1-Reporter Assay. The class given is cell-based. In short, it runs like this:
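Jurkat cells carrying a lentiviral AP1-luciferase reporter received 30 nl compound per well for 20 min at 37 °C and 5% CO2. They were then stimulated for 6 h with anti-CD3 solution at 0.4 μg/mL; reference wells received 4 μg/mL and unstimulated wells medium only. Readout was Steady-Glo luciferase luminescence (RLU).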
Background: A reporter such as luciferase makes a cellular process visible.

[4] abbreviates: Mus musculus, MC-38, read-out: msCTL INF-γ IC50, murine CTL IFN-γ (table title reads INF-γ Whole Blood Normalized Agonist EC50).
Where [5] appears, read: Homo sapiens, Jurkat, read-out: API-Luciferase Reporter IC50, Table 3.
The mark [6] stands for this setting: Homo sapiens, Jurkat, read-out: DGKAP1 Lucif Reporter IC50, Table 4.
The mark [7] stands for this setting: read-out: API-Luciferase Reporter IC50, Table 3.
Where [8] appears, read: read-out: msCTL INF-γ IC50, murine CTL IFN-γ (table title reads INF-γ Whole Blood Normalized Agonist EC50).

The structures appear in SMILES notation. Read-outs that look alike come from different tables or passages of the source.

Sequence of human DGKα (P23743 other isoform, or with tags, fused parts or gaps): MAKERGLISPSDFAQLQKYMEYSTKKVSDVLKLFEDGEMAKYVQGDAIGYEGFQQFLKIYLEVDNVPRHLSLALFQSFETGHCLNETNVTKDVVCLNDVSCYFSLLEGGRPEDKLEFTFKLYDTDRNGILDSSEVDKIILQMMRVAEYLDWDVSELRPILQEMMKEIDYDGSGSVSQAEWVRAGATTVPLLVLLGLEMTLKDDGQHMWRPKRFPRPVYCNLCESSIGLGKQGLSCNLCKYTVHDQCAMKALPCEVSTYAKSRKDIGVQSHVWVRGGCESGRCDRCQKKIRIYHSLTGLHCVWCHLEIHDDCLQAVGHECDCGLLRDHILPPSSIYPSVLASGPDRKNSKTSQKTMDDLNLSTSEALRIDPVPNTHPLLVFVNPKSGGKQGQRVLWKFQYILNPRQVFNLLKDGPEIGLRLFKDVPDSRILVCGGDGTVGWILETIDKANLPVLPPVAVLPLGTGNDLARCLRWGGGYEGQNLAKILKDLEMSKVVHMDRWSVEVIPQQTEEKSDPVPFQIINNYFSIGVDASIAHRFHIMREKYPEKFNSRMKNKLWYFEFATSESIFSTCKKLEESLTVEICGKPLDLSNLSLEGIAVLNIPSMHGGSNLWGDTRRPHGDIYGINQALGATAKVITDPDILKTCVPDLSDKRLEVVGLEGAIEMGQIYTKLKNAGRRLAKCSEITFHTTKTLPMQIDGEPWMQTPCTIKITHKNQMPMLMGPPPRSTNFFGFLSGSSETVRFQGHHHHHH

Turning to `COc1ccc2c(n1)c(N1CCN(C(c3ccc(F)cc3)c3ccc(F)cc3OC)CC1)c(C#N)c(=O)n2C` (racemic) [Example 412, 4-{4-[(4-fluoro-2-methoxyphenyl)(4-fluorophenyl)methyl]piperazin-1-yl}-6-methoxy-1-methyl-2-oxo-1,2-dihydro-1,5-naphthyridine-3-carbonitrile], the IC50 worked out at 360 nM in experiment [1] (setting [4]) and 1800 nM in experiment [2].

On to `COc1ccccc1C(c1ccc(F)cc1)N1CCN(c2c(C#N)c(=O)n(C)c3ccc(Br)nc23)CC1` (single isomer, unassigned) [Example 13, 6-bromo-4-{4-[(4-fluorophenyl)(2-methoxyphenyl)methyl]piperazin-1-yl}-1-methyl-2-oxo-1,2-dihydro-1,5-naphthyridine-3-carbonitrile], for which the half-inhibitory concentration (IC50) came out at 640 nM in experiment [1] (setting [4]), 5400 nM in experiment [2] and 1300 nM in experiment [3] (setting [5]).

Take `COc1cc(F)ccc1C(c1ccc(F)cc1)N1CCN(c2c(C#N)c(=O)n(C)c3ccc(Br)nc23)CC1` (single isomer, unassigned) [Example 17, 6-bromo-4-{4-[(4-fluoro-2-methoxyphenyl)(4-fluorophenyl)methyl]piperazin-1-yl}-1-methyl-2-oxo-1,2-dihydro-1,5-naphthyridine-3-carbonitrile]: the half-maximal inhibitory concentration (IC50) in experiment [1] (setting [4]) was determined as 190 nM; in experiment [2], 3500 nM; in experiment [3] (setting [5]), 350 nM; in experiment [3] (setting [6]), 1330 nM.

In the case of `CC(c1ccc(F)cc1)N1CCN(c2c([N+](=O)[O-])c(=O)n(C)c3ccc(C#N)nc23)CC1` (single isomer, unassigned) [Example 44, 8-(4-(1-(4-fluorophenyl)ethyl)piperazin-1-yl)-5-methyl-7-nitro-6-oxo-5,6-dihydro-1,5-naphthyridine-2-carbonitrile], the IC50 amounted to 130 nM in experiment [1] (setting [4]), 370 nM in experiment [2] and 350 nM in experiment [3] (setting [5]).

For `C#CCn1c(=O)c([N+](=O)[O-])c(N2CCN(C(c3ccc(F)cc3)c3ccc(F)cc3O)CC2)c2nc(C#N)ccc21` (single isomer, unassigned) [Example 121, 8-(4-((4-fluoro-2-hydroxyphenyl)(4-fluorophenyl)methyl)piperazin-1-yl)-7-nitro-6-oxo-5-(prop-2-yn-1-yl)-5,6-dihydro-1,5-naphthyridine-2-carbonitrile], the half-inhibitory concentration (IC50) in experiment [1] (setting [4]) was determined as 50 nM; in experiment [2] it was 6400 nM; in experiment [3] (setting [7]), 340 nM.

For `COc1cc(F)ccc1C(c1ccc(F)cc1)N1CCN(c2c([N+](=O)[O-])c(=O)n(C)c3ccc(C#N)nc23)CC1` (single isomer, unassigned) [Example 124, 8-(4-((4-fluoro-2-methoxyphenyl)(4-fluorophenyl)methyl)piperazin-1-yl)-5-methyl-7-nitro-6-oxo-5,6-dihydro-1,5-naphthyridine-2-carbonitrile], the IC50 in experiment [1] (setting [4]) worked out at 40 nM; in experiment [2], 750 nM; in experiment [3] (setting [5]), 100 nM; in experiment [3] (setting [6]), 570 nM.

`C#CCn1c(=O)c([N+](=O)[O-])c(N2CCN(C(C)c3ccc(F)cc3)CC2)c2nc(C#N)ccc21` (single isomer, unassigned) [Example 136, 8-(4-(1-(4-fluorophenyl)ethyl)piperazin-1-yl)-7-nitro-6-oxo-5-(prop-2-yn-1-yl)-5,6-dihydro-1,5-naphthyridine-2-carbonitrile]: the IC50 in experiment [1] (setting [8]) was found to be 90 nM; in experiment [2], 790 nM; in experiment [3] (setting [5]), 230 nM.

For `C#CCn1c(=O)c([N+](=O)[O-])c(N2CCN(C(C)c3ccc(F)cc3)CC2)c2nc(C#N)ccc21` (single isomer, unassigned) [Example 137, 8-(4-(1-(4-fluorophenyl)ethyl)piperazin-1-yl)-7-nitro-6-oxo-5-(prop-2-yn-1-yl)-5,6-dihydro-1,5-naphthyridine-2-carbonitrile], the IC50 in experiment [1] (setting [8]) was 230 nM; in experiment [2], 1500 nM; in experiment [3] (setting [7]) it was 190 nM.

With `C#CCn1c(=O)c([N+](=O)[O-])c(N2CCN(C(CC)c3ccc(F)cc3)CC2)c2nc(C#N)ccc21` (single isomer, unassigned) [Example 141, 8-{4-[1-(4-fluorophenyl)propyl]piperazin-1-yl}-7-nitro-6-oxo-5-(prop-2-yn-1-yl)-5,6-dihydro-1,5-naphthyridine-2-carbonitrile], the IC50 turned out to be 290 nM in experiment [1] (setting [4]), 580 nM in experiment [2] and 240 nM in experiment [3] (setting [5]).

Consider `CC(C)C(c1ccc(F)cc1)N1CCN(c2c(C#N)c(=O)n(C)c3ccc(Cl)nc23)CC1` (single isomer, unassigned) [Example 315, 6-chloro-4-{4-[1-(4-fluorophenyl)-2-methylpropyl]piperazin-1-yl}-methyl-2-oxo-1,2-dihydro-1,5-naphthyridine-3-carbonitrile], for which the IC50 is above 240000 nM in experiment [2] and 10000 nM in experiment [3] (setting [6]).

As to `Cn1c(=O)c(C#N)c(N2CCN(C(CC(C)(C)C)c3ccc(F)cc3)CC2)c2nc(Cl)ccc21` (single isomer, unassigned) [Example 377, 6-chloro-4-{4-[1-(4-fluorophenyl)-3,3-dimethylbutyl]piperazin-1-yl}-1-methyl-2-oxo-1,2-dihydro-1,5-naphthyridine-3-carbonitrile], the IC50 was above 240000 nM in experiment [2] and 10000 nM in experiment [3] (setting [6]).

Take `Cn1c(=O)c(C#N)c(N2CCN(C(c3ccc(F)cc3)C3CCC3)CC2)c2nc(Cl)ccc21` (single isomer, unassigned) [Example 382, 6-chloro-4-{4-[cyclobutyl(4-fluorophenyl)methyl]piperazin-1-yl}-1-methyl-2-oxo-1,2-dihydro-1,5-naphthyridine-3-carbonitrile]: the IC50 came out at 760 nM in experiment [2] and 10000 nM in experiment [3] (setting [6]).

Take `CC(c1ccc(F)cc1)N1CCN(c2c(C#N)c(=O)n(C)c3ccc(Cl)nc23)CC1` (single isomer, unassigned) [Example 387, 6-chloro-4-{4-[1-(4-fluorophenyl)ethyl]piperazin-1-yl}-1-methyl-2-oxo-1,2-dihydro-1,5-naphthyridine-3-carbonitrile]: the IC50 in experiment [2] came to 270 nM; in experiment [3] (setting [6]), 3330 nM.

Take `CC(c1ccc(F)cc1)N1CCN(c2c(C#N)c(=O)n(C)c3ccc(Cl)nc23)CC1` (single isomer, unassigned) [Example 388, 6-chloro-4-{4-[1-(4-fluorophenyl)ethyl]piperazin-1-yl}-1-methyl-2-oxo-1,2-dihydro-1,5-naphthyridine-3-carbonitrile]: the 50% inhibitory concentration (IC50) in experiment [2] was found to be 51 nM; in experiment [3] (read-out: DGKAP1 Lucif Reporter IC50, Table 4), 3330 nM.

`COc1cc(F)ccc1C(c1ccc(F)cc1)N1CCN(c2c(C#N)c(=O)n(C)c3ccc(C#N)nc23)CC1` (single isomer, unassigned) [Example 406, 8-{4-[(4-fluoro-2-methoxyphenyl)(4-fluorophenyl)methyl]piperazin-1-yl}-5-methy-6-oxo-5,6-dihydro-L5-naphthyridine-2,7-dicarbonitrile]: the concentration for half-maximal inhibition (IC50) was 160 nM in experiment [1] (setting [8]) and 13000 nM in experiment [2].

Turning to `COc1cc(F)ccc1C(c1ccc(F)cc1)N1CCN(c2c(C#N)c(=O)n(C)c3ccc(C#N)nc23)CC1` (single isomer, unassigned) [Example 407, 8-{4-[(4-fluoro-2-methoxyphenyl)(4-fluorophenyl)methyl]piperazin-1-yl}-5-methy-6-oxo-5,6-dihydro-L5-naphthyridine-2,7-dicarbonitrile], the figures for the concentration for half-maximal inhibition (IC50) in experiment [1] (setting [8]) and in experiment [2] were 40 nM and 960 nM, respectively.

With `Cn1c(=O)c(C#N)c(N2CCN(C(c3ccc(F)cc3)c3ccccc3O)CC2)c2nc(C#N)ccc21` (stereo not drawn) [Example 11, 8-{4-[(4-fluorophenyl)(2-hydroxyphenyl)methyl]piperazin-1-yl}-5-methyl-6-oxo-5,6-dihydro-1,5-naphthyridine-2,7-dicarbonitrile], the IC50 in experiment [2] was determined as 1800 nM; in experiment [3] (setting [5]), 80 nM.

For the compound `Cn1c(=O)c(C#N)c(N2CCN(Cc3cccc4ccccc34)CC2)c2nc(C#N)ccc21` [Example 404, 5-methyl-8-{4-[(naphthalen-1-yl)methyl]piperazin-1-yl}-6-oxo-5,6-dihydro-1,5-naphthyridine-2,7-dicarbonitrile], the figures for the IC50 in experiment [1] (setting [4]) and in experiment [2] were 9840 nM and 4900 nM, respectively.

`Cn1c(=O)c(C#N)c(N2CCN(C(C)(C)c3ccc(F)cc3)CC2)c2nc(Cl)ccc21` [Example 425, 6-chloro-4-{4-[2-(4-fluorophenyl)propan-2-yl]piperazin-1-yl}-1-methyl-2-oxo-1,2-dihydro-1,5-naphthyridine-3-carbonitrile]: the IC50 in experiment [1] (setting [4]) came out at 2980 nM; in experiment [2], 20000 nM.
